The text below walks through data of patent US20150158845A1, “5-HALOGEN-SUBSTITUTED OXINDOLE DERIVATIVES AND USE THEREOF FOR TREATING VASOPRESSIN-DEPENDENT DISEASES” (ABBVIE DEUTSCHLAND GMBH & CO. KG, priority 2007, published 2015).

Some results are limits rather than exact numbers.

Data set [1] has as its target T1, human vasopressin V1b receptor (Homo sapiens, UniProt P47901).
T1 construct: expressed in transfected cells; host or cells: CHO-K1 (clone 3H2; cell line hV1b-3H2_CHO), membrane preparation
T1 sequence (P47901 1-424): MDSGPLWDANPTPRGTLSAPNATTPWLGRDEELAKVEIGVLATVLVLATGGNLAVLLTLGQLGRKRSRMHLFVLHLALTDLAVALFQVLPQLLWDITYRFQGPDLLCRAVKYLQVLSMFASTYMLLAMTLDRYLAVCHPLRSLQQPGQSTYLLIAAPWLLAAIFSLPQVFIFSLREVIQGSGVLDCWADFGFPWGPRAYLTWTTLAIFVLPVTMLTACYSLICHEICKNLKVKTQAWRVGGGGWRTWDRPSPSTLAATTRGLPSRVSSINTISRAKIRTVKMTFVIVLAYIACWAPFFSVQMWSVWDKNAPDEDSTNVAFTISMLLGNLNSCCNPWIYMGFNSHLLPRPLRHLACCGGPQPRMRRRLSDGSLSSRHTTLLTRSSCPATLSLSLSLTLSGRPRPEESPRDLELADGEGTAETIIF
Briefly: Vasopressin V1b receptor binding assay. The note with it: membranes from CHO-K1 cells with human V1b receptor, 1.5 nM 3H-AVP. The method, then:
1. Vasopressin V1b Receptor Binding Assay:
The substance concentration was further diluted 1:5 in the assay mixture (2% DMSO in the mixture).
The nonspecific binding was determined with 1 M AVP (Bachem # H1780). All determinations were carried out as triplicate determinations.

The target in data set [2] is human vasopressin V1a receptor (Homo sapiens, UniProt P37288). Briefly: Vasopressin V1a receptor binding assay. The note with it: selectivity: quotient of Ki at human V1a and Ki at human V1b.
The nature of data set [3]: Determination of the microsomal half-life / microsomal clearance. The settings on record: pH 7.4; human liver microsomes, 0.5 μM test substance, 0.25 mg microsomal protein/ml. Format: in vitro ADME. As to the method: 5. Determination of the Microsomal Half-Life:
The metabolic stability of the compounds of the invention was determined in the following assay.
The test substances were incubated in a concentration of 0.5 μM as follows: 0.5 μM test substance are preincubated together with liver microsomes from different species (from rat, human or other species) (0.25 mg of microsomal protein/ml) in 0.05 M potassium phosphate buffer of pH 7.4 in microtiter plates at 37° C. for 5 min. The reaction is started by adding NADPH (1 mg/mL). After 0, 5, 10, 15, 20 and 30 min, 50 μl aliquots are removed, and the reaction is immediately stopped and cooled with the same volume of acetonitrile. The samples are frozen until analyzed. The remaining concentration of undegraded test substance is determined by MSMS. The half-life (T½) is determined from the gradient of the signal of test substance/unit time plot, it being possible to calculate the half-life of the test substance, assuming first order kinetics, from the decrease in the concentration of the compound with time. The microsomal clearance (mCl) is calculated from mCl=In2/T½/(content of microsomal protein in mg/ml)×1000 […] (modified from references: Di, The Society for Biomoleculur Screening, 2003, 453-462; Obach, DMD, 1999 vol 27. N 11, 1350-1359).

human vasopressin V1a receptor, sequence (P37288 whole entry): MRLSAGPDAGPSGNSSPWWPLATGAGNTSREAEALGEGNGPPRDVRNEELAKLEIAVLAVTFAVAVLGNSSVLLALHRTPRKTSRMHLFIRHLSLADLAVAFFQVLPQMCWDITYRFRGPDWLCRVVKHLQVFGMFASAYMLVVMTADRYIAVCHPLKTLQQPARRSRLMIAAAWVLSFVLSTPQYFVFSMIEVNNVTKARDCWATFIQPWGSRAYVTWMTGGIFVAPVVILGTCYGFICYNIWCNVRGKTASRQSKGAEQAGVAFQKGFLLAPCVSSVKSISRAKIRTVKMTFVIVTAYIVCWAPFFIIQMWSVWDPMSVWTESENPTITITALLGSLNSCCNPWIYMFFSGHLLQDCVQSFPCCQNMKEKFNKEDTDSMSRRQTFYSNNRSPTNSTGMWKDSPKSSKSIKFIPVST

One may read the Ki as a measure of affinity in units of concentration, obtained from inhibition or displacement. A higher Ki goes with weaker binding. Usually microsomal CLint stands for the rate of metabolic loss divided by the concentration. Low values mean slow turnover, high ones rapid turnover. In data set [1], `CCOc1ncccc1C1(NC(=O)N2CCN(C3CCN(CC)CC3)CC2)C(=O)N(S(=O)(=O)c2ccc(OC)cc2OC)c2ccc(Cl)cc21` (single isomer, unassigned; (+)) [Example 4B, (+)-4-(1-Ethylpiperidin-4-yl)piperazine-1-[5-chloro-1-(2,4-dimethoxyphenylsulfonyl)-3-(2-ethoxypyridin-3-yl)-2-oxo-2,3-dihydro-1H-indol-3-yl]carboxamide] showed a Ki of under 1 nM. Also, the “Ki(h-V1a)/Ki(h-V1b)” value in data set [2] is given as “+++ (>75)”. Moreover, in data set [3], the microsomal CLint at 0.5 μM was 50 to 75 µL/min/mg.

In data set [1], `CCOc1ncccc1C1(NC(=O)N2CCC(N3CCN(C)CC3)CC2)C(=O)N(S(=O)(=O)c2ccc(OC)cc2OC)c2ccc(Cl)cc21` (single isomer, unassigned; (+)) [Example 5B, (+)-4-(4-Methylpiperazin-1-yl)piperidine-1-[5-chloro-1-(2,4-dimethoxyphenylsulfonyl)-3-(2-ethoxypyridin-3-yl)-2-oxo-2,3-dihydro-1H-indol-3-yl]carboxamide] returned an inhibition constant Ki of under 1 nM. Also, the “Ki(h-V1a)/Ki(h-V1b)” value in data set [2] is “+++ (>75)”. In data set [3], this compound showed a microsomal CLint at 0.5 μM of under 50 µL/min/mg.

Compound `CCOc1ncccc1C1(NC(=O)N2CCC(N3CCN(CC)CC3)CC2)C(=O)N(S(=O)(=O)c2ccc(OC)cc2OC)c2ccc(Cl)cc21` (single isomer, unassigned; (+)) [Example 8B, (+)-4-(4-Ethylpiperazin-1-yl)piperidine-1-[5-chloro-1-(2,4-dimethoxyphenylsulfonyl)-3-(2-ethoxypyridin-3-yl)-2-oxo-2,3-dihydro-1H-indol-3-yl]carboxamide] registered a Ki in data set [1] of under 1 nM. In data set [2], the “Ki(h-V1a)/Ki(h-V1b)” value is “+++ (>75)”. The microsomal CLint at 0.5 μM in data set [3] was 75 to 100 µL/min/mg.
